Laboratory results from ChEMBL document CHEMBL5325411, “Design, synthesis and biological evaluation of novel phenylfuran-bisamide derivatives as P-glycoprotein inhibitors against multidrug resistance in MCF-7/ADR cell” (Eur J Med Chem, 2023).
The source made the active and inactive calls. No cut-off for these calls is given here.

What was measured:
NCI/ADR-RES [1] = test: Cytotoxicity against DOX-resistant human MCF7/ADR cells assessed as reversal fold of resistance by measuring ratio of doxorubicin IC50 alone to doxorubicin IC50 in presence of test compound incubated for 48 hrs by CCK8 assay; assay type: functional
MCF7 = test: Cytotoxicity against human MCF7 cells assessed as cell growth inhibition at 5 uM incubated for 48 hrs by CCK8 assay relative to control; assay type: functional
NCI/ADR-RES [2] = test: Cytotoxicity against DOX-resistant human MCF7/ADR cells assessed as cell growth inhibition at 5 uM incubated for 48 hrs by CCK8 assay relative to control; assay type: functional
[3] = biological target: ATP-dependent translocase ABCB1 (Homo sapiens, UniProt P08183); test: Inhibition of P-gp in DOX-resistant human MCF7/ADR cells assessed as increase in intracellular Rh123 accumulation incubated for 4 hrs by flow cytometry; assay type: cell-based; details: mcf7adr, at 2.5 to 5 µM, dose 2.5-5 µM
Sequence of ATP-dependent translocase ABCB1 (P08183 whole entry): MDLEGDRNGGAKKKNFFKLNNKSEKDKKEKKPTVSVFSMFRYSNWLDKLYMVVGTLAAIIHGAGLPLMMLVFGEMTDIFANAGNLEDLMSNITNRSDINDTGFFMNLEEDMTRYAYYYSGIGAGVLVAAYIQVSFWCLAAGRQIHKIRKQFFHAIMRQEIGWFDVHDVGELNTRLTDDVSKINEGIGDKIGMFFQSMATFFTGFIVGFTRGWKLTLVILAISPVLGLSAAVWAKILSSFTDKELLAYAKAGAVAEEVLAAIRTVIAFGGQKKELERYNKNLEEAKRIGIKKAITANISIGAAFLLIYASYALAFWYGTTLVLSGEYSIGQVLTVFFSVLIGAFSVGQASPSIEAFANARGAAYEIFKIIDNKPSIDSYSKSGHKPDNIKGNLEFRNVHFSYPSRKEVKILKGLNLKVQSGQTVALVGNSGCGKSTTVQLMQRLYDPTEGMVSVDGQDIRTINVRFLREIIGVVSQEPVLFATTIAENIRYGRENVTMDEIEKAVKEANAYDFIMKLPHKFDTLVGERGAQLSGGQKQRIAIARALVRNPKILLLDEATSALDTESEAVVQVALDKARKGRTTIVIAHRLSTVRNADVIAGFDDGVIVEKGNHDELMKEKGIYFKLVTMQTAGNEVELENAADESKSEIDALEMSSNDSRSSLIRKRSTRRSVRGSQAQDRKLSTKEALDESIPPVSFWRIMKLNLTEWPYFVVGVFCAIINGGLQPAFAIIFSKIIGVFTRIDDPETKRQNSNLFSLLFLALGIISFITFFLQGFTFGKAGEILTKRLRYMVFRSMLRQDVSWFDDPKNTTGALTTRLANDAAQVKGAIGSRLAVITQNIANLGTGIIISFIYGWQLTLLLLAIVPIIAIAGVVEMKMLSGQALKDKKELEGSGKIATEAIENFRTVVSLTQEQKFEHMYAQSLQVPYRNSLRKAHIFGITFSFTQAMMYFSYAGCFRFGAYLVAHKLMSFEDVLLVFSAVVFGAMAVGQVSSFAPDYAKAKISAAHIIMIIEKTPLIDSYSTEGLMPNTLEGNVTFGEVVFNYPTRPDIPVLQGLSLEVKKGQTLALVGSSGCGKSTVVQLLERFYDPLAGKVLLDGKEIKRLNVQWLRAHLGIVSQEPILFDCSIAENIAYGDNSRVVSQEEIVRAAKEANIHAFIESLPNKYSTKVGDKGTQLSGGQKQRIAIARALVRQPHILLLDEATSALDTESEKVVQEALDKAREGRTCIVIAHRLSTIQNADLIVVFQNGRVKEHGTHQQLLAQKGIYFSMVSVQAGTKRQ

NCI/ADR-RES [4] = test: Downregulation of P-gp expression in DOX-resistant human MCF7/ADR cells at 0.5 to 5 uM incubated for 48 hrs by Western blot analysis; assay type: functional, cell-based; details: dose 0.5-5 µM

| inhibition (INH) [3] | Structure (SMILES) | Ratio IC50 (NCI/ADR-RES [1]) | inhibition at 5 µM (MCF7) | inhibition at 5 µM (NCI/ADR-RES [2]) | Activity (NCI/ADR-RES [4]) |
| --- | --- | --- | --- | --- | --- |
| – | COc1cc2c(cc1OC)CN(C(=O)c1ccc(-c3ccc(NC(=O)c4cc5cc([N+](=O)[O-])ccc5[nH]4)cc3)o1)CC2 | 189.9 | 5.1% | 5.7% | – |
| – | COc1cc2c(cc1OC)CN(C(=O)c1ccc(-c3ccc(NC(=O)c4cc5c(F)cc(F)cc5[nH]4)cc3)o1)CC2 | 600.2 | 9.1% | 14.7% | – |
| – | COc1ccc(-c2ccc(C(=O)N3CCc4cc(OC)c(OC)cc4C3)o2)cc1 | 39.4 | 11.2% | 25.7% | – |
| – | COc1cc2c(cc1OC)CN(CCc1ccc(NC(=O)c3cc(OC)c(OC)cc3NC(=O)c3cnc4ccccc4c3)cc1)CC2 | 319.3 | 21.3% | – | – |
| – | COc1cc2c(cc1OC)CN(C(=O)c1ccc(-c3ccc(NC(=O)CC(C)(C)C)cc3)o1)CC2 | 52 | 18.5% | 12.6% | – |
| – | COc1ccc2[nH]c(C(=O)Nc3ccc(-c4ccc(C(=O)N5CCc6cc(OC)c(OC)cc6C5)o4)cc3)cc2c1 | 214.4 | 19.5% | 16.1% | – |
| – | COc1cc2c(cc1OC)CN(C(=O)c1ccc(-c3ccc(NC(=O)c4cc5ccc(Br)cc5[nH]4)cc3)o1)CC2 | 497.5 | 7.4% | 14.7% | – |
| – | COc1cccc2c1C(=O)c1c(O)c3c(c(O)c1C2=O)C[C@@](O)(C(=O)CO)C[C@@H]3O[C@H]1C[C@H](N)[C@H](O)[C@H](C)O1 [DOXORUBICIN] | 1 | – | – | – |
| – | COc1cc2c(cc1OC)CN(C(=O)c1ccc(-c3ccc(NC(C)=O)cc3)o1)CC2 | 18.6 | 11% | 10.1% | – |
| – | COc1cc2c(cc1OC)CN(C(=O)c1ccc(-c3ccc(NC(=O)c4cc5c(C)cccc5[nH]4)cc3)o1)CC2 | 88.3 | 16.6% | 15.1% | – |
| – | COc1cc2c(cc1OC)CN(C(=O)c1ccc(-c3ccc(NC(=O)c4cc5ccc(F)cc5[nH]4)cc3)o1)CC2 | 566.4 | 28.1% | 16.9% | – |
| – | COc1ccc2cc(C(=O)Nc3ccc(-c4ccc(C(=O)N5CCc6cc(OC)c(OC)cc6C5)o4)cc3)[nH]c2c1 | 437.1 | 7.3% | 12.4% | – |
| – | COc1cc2c(cc1OC)CN(C(=O)c1ccc(-c3ccc(NC(=O)C4CC4)cc3)o1)CC2 | 57.2 | 12.2% | 10.9% | – |
| – | COc1cc2c(cc1OC)CN(C(=O)c1ccc(-c3ccc(NC(=O)c4csc5ccccc45)cc3)o1)CC2 | – | 37.3% | 41.9% | – |
| – | COc1cc2c(cc1OC)CN(C(=O)c1ccc(-c3ccc(NC(=O)C4CCCC4)cc3)o1)CC2 | 18.6 | 15.7% | 19.8% | – |
| – | CCCCC(=O)Nc1ccc(-c2ccc(C(=O)N3CCc4cc(OC)c(OC)cc4C3)o2)cc1 | 15.7 | 17.6% | 13.1% | – |
| – | COc1cc2c(cc1OC)CN(C(=O)c1ccc(-c3ccc(NC(=O)c4ccc5ccccc5c4)cc3)o1)CC2 | 451.1 | 29.5% | 23.8% | – |
| – | COc1cc2c(cc1OC)CN(C(=O)c1ccc(-c3ccc(NC(=O)c4cc5ccccc5[nH]4)cc3)o1)CC2 | 540.5 | 13.3% | 15.1% | – |

| inhibition (INH) [3] | Structure (SMILES) | Ratio IC50 (NCI/ADR-RES [1]) | inhibition at 5 µM (MCF7) | inhibition at 5 µM (NCI/ADR-RES [2]) | Activity (NCI/ADR-RES [4]) |
| --- | --- | --- | --- | --- | --- |
| – | COc1cc2c(cc1OC)CN(C(=O)c1ccc(-c3ccc(NC(=O)c4cc5cc(Br)ccc5[nH]4)cc3)o1)CC2 | 5473 | 26.8% | 19.5% | – |
| – | COc1cc2c(cc1OC)CN(C(=O)c1ccc(-c3ccc(NC(=O)c4cc5cc(C)ccc5[nH]4)cc3)o1)CC2 | 116.9 | 8.1% | 10.1% | – |
| – | COc1cc2c(cc1OC)CN(C(=O)c1ccc(-c3ccc(NC(=O)c4cc5cc(Cl)ccc5[nH]4)cc3)o1)CC2 | 613.3 | 15.8% | 14.4% | – |
| – | COc1cc2c(cc1OC)CN(C(=O)c1ccc(-c3ccc(NC(=O)C(C)(C)C)cc3)o1)CC2 | 78.4 | 12.9% | 23.3% | – |
| – | COc1cc2c(cc1OC)CN(C(=O)c1ccc(-c3ccc(NC(=O)c4cccc5[nH]ccc45)cc3)o1)CC2 | 220 | 7.6% | 9.2% | – |
| – | COc1cc2c(cc1OC)CN(C(=O)c1ccc(-c3ccc(NC(=O)c4cccc5ccccc45)cc3)o1)CC2 | 201.7 | 34.8% | 28.4% | – |
| – | COc1ccc(CCN(C)CCCC(C#N)(c2ccc(OC)c(OC)c2)C(C)C)cc1OC (stereo not drawn) | – | – | 12.2% | – |
| – | COc1cc2c(cc1OC)CN(C(=O)c1ccc(-c3ccc(NC(=O)Cc4cccc5ccccc45)cc3)o1)CC2 | 168.8 | – | 26.3% | – |
| – | CCC(=O)Nc1ccc(-c2ccc(C(=O)N3CCc4cc(OC)c(OC)cc4C3)o2)cc1 | 33.3 | 17.2% | 23.2% | – |
| – | COc1cc2c(cc1OC)CN(C(=O)c1ccc(-c3ccc(NC(=O)/C=C/c4ccccc4)cc3)o1)CC2 | 277.7 | 14.5% | 14.6% | – |
| – | C/C=C/C[C@@H](C)[C@@H](O)[C@H]1C(=O)N[C@@H](CC)C(=O)N(C)CC(=O)N(C)[C@@H](CC(C)C)C(=O)N[C@@H](C(C)C)C(=O)N(C)[C@@H](CC(C)C)C(=O)N[C@@H](C)C(=O)N[C@H](C)C(=O)N(C)[C@@H](CC(C)C)C(=O)N(C)[C@@H](CC(C)C)C(=O)N(C)[C@@H](C(C)C)C(=O)N1C [CYCLOSPORINE] | – | – | 24.5% | – |
| – | COc1cc2c(cc1OC)CN(C(=O)c1ccc(-c3ccc(NC(=O)C4CCC4)cc3)o1)CC2 | 82.1 | 15.3% | – | – |
| – | COc1cc2c(cc1OC)CN(C(=O)c1ccc(-c3ccc(NC(=O)c4c[nH]c5ccccc45)cc3)o1)CC2 | 347 | 16.1% | 18.2% | – |
| Dose-Dependent Effect | COc1cc2c(cc1OC)CN(C(=O)c1ccc(-c3ccc(NC(=O)c4cc5cc(F)ccc5[nH]4)cc3)o1)CC2 | 1163 | 12% | 19.8% | inactive |
| – | COc1cc2c(cc1OC)CN(C(=O)c1ccc(-c3ccc(NC(=O)c4cc5ccccc5o4)cc3)o1)CC2 | – | 44.5% | 63.7% | – |
| – | COc1cc2c(cc1OC)CN(C(=O)c1ccc(-c3ccc(NC(=O)C(C)C)cc3)o1)CC2 | 46.5 | 19.1% | 18.4% | – |
| – | C/C=C/C(=O)Nc1ccc(-c2ccc(C(=O)N3CCc4cc(OC)c(OC)cc4C3)o2)cc1 | 130.1 | 1.7% | 8.8% | – |
| – | COc1cc2c(cc1OC)CN(C(=O)c1ccc(-c3ccc(NC(=O)c4cc5ccccc5s4)cc3)o1)CC2 | – | 48.8% | 46.8% | – |
